From patent US8129184B2, “Cancer stem cell antigen vaccines and methods” (Cedars-Sinai Medical Center, priority 2006, dated 2012)
Entries after “also recorded” stand apart in the source; their conditions may differ.

Experiments:
[1] = system: CD133 positive cells isolated from No. 66; assay: WST-1 Cell Proliferation Assay, drug sensitivity of CD133 positive vs CD133 negative cells, No. 66; format: cell-based, human; details: No. 66, 48 hours, 10% FBS/F-12/DMEM
Procedure: FIGS. 10A-10D are line graphs depicting drug sensitivity of CD133 positive cancer stem cells derived from patient No. 66. Tumor cells of No. 66 were cultured in FBS/F-12/DMEM medium for 4 passages. Both CD133 positive and negative tumor cells were collected by FACS sorting. 1×10^4 cells/well were plated in 96-well plate and treated with the indicated concentrations of VP-16, Taxol, temozolomide, and carboplatin for 48 hours in FBS/F-12/DMEM medium. * indicates p<0.05 compared to autologous CD133 negative cells. Data are representative of two independent experiments. (10A) VP16; (10B) Taxol; (10C) temozolomide; (10D) carboplatin.
(§1) To determine whether CD133 positive cancer stem cells were resistant to chemotherapeutic agents, the WST-1 Cell Proliferation Assay was used to examine the drug sensitivity of CD133 positive cells and CD133 negative cells (both collected by FACS sorting from the three glioblastoma patients' primary cultured tumor cells as described above). CD133 positive and negative cells were exposed to conventional chemotherapeutic agents, temozolomide, carboplatin, VP-16 or taxol at various concentrations, for up to 48 hours in 10% FBS/F-12/DMEM culture medium. Temozolomide was supplied by the Schering-Plough Research Institute (Kenilworth, N.J.) and was dissolved in DMSO (Sigma Chemical Co., St Louis, Mo.) at 100 mM stock solution. Carboplatin, etoposide (VP-16) and paclitaxel (Taxol) were obtained from Sigma-Aldrich (St. Louis, Mo.).

[2] = system: CD133 positive cells isolated from No. 377; assay: WST-1 Cell Proliferation Assay, drug sensitivity of CD133 positive vs CD133 negative cells, No. 377; format: cell-based, human; details: 48 hours
Procedure: (§2) FIGS. 11A-11C are a set of line graphs depicting drug sensitivity of CD133 positive cancer stem cells derived from patient Nos. 377 and 1049. Tumor cells of patient No. 377 and No. 1049 were cultured in FBS/F-12/DMEM medium for 3 passages. Both CD133 positive and negative tumor cells were collected by FACS sorting. 1×10^4 cells/well were plated in 96-well plate and treated with the indicated concentrations of carboplatin (11A and 11C) or VP-16 (11B) for 48 hours in FBS/F-12/DMAEM medium. * indicates p<0.05 compared to autologous CD133 negative cells. Data are representative of two independent experiments.
as §1, with “Carboplatin, etoposide (VP-16) and paclitaxel (Taxol) were obtained from Sigma-Aldrich (St. Louis, Mo.).” left out

[3] = system: 9L sphere and monolayer cells; assay: WST-1 viability of 9L neurospheres and monolayer cells exposed to chemotherapeutic agents; format: cell-based, rat; details: 125-1,000 μM, 2 days
Procedure: To compare the differential proliferation rates and resistance to chemotherapeutic agents, 2,000 healthy 9L sphere and monolayer cells were exposed to either Dulbecco's modified Eagle's medium/F-12 medium containing 10% fetal bovine serum (FBS), or […] stock solution of Temozolamide or Carboplatin dissolved in PBS at concentrations of 1,000 μM, 500 μM, 250 μM, and 125 μM for 2 days. The viability of the cells was scored by measurement of the absorption of formazan dye (the amount of formazan dye formed directly correlates to the number of metabolically active cells) using the cellular proliferation assay WST-1 (Roche Molecular Biochemicals, Mannheim, Germany). Formazan was measured with the use of a microplate reader (Tecan) and spectrophotometer set at a wavelength of 440 nm and a reference wavelength of 890 nm. Cellular viability was determined by exposing cells to WST-1 for 4 hours, and calculating the percentage of viable cells. Proliferation was also assessed by using manual cell counting after 7 days in culture, with an initial cellular concentration of 100,000 cells/mL in a […] flask.

[4] = system: CD133 positive cells isolated from No. 1049; assay: WST-1 Cell Proliferation Assay, drug sensitivity of CD133 positive vs CD133 negative cells, No. 1049; format: cell-based, human; details: No. 1049, at 200 μM, 48 hours
Procedure: as §2
as §1, with “Carboplatin, etoposide (VP-16) and paclitaxel (Taxol) were obtained from Sigma-Aldrich (St. Louis, Mo.).” left out

SMILES: CC(=O)O[C@H]1C(=O)[C@@]2(C)[C@H]([C@H](OC(=O)c3ccccc3)[C@]3(O)C[C@H](OC(=O)[C@H](O)[C@@H](NC(=O)c4ccccc4)c4ccccc4)C(C)=C1C3(C)C)[C@]1(OC(C)=O)CO[C@@H]1C[C@@H]2O [Taxol, paclitaxel]
- drug resistance of CD133 positive cells compared to autologous CD133 negative cells [1]: dramatic drug resistance

SMILES: COc1cc([C@@H]2c3cc4c(cc3[C@@H](O[C@@H]3O[C@@H]5CO[C@@H](C)O[C@H]5[C@H](O)[C@H]3O)[C@H]3COC(=O)[C@H]23)OCO4)cc(OC)c1O [VP-16, etoposide]
- resistance of CD133 positive cells compared to autologous CD133 negative cells ([2]; No. 377, at 200 μM): significant resistance
- drug resistance of CD133 positive cells compared to autologous CD133 negative cells [1]: dramatic drug resistance

SMILES: N.N.O=C([O-])C1(C(=O)[O-])CCC1.[Pt+2] [carboplatin]
- resistance of CD133 positive cells compared to autologous CD133 negative cells ([2]; No. 377, all concentrations tested): significant resistance
- resistance of neurospheres to the agent compared to monolayer cells [3]: significantly (P<0.05) greater resistance; also recorded: significantly more resistant
- resistance of CD133 positive cells compared to autologous CD133 negative cells [4]: significant resistance
- drug resistance of CD133 positive cells compared to autologous CD133 negative cells [1]: dramatic drug resistance
